Data as given in patent US20240148895A1, “ANTIBODY-DRUG CONJUGATE” (Eisai R&D Management Co., Ltd., priority 2022, published 2024).
Where two headings read alike, the source gives them in different places.

How the values were obtained:
AsPC-1/Cas9 cell line = test: AsPC-1/Cas9 growth inhibition assay; type: cell-based, human; details: AsPC-1/Cas9 cells, 5 days culture, CellTiter Glo 2.0, read-out: Absolute IC50—Day 5 (nM) AsPC-1 Cas9
Method: The human pancreatic cancer cell line AsPC-1 (ATCC Number CRL1682) was infected with Edit-R Lentiviral hCMV-Blast-Cas9 Nuclease Particle (Dharmacon, VCAS10124) in the presence of 8 μg/ml of Hexadimethrine bromide (Sigma, H9268), and after 24 hours it was exposed to 10 μg/ml of Blastcidin S (Thermo, A11139) to remove the uninfected cells, thereby establishing an AsPC-1/Cas9 cell line. The cells were maintenance cultured in a 5% CO2 incubator (37° C.) using RPMI-1640 (FujiFilm-Wako Pure Chemical Industries) containing 10% fetal bovine serum (FBS: SIGMA 173012) and penicillin/streptomycin (FujiFilm-Wako Pure Chemical Industries) (hereunder referred to simply as “culture medium”). After adding 45 μL of AsPC-1/Cas9 cell suspension prepared to 2.0×10^4 cells/mL using culture medium into each well of a 384-well plate (Greiner 781091), the cells were cultured overnight in a 5% CO2 incubator (37° C.). On the following day, 5 μL of the test substance diluted with culture medium was added to each well, and culturing was continued for 5 days in a 5% CO2 incubator (37° C.). Next, 25 μL of CellTiter Glo™ 2.0 (Promega) was added to each well, and the plate contents were mixed for 5 minutes using a plate mixer. The plate was stationed for 10 minutes at room temperature while shielded from light, and then the luminous intensity was measured with an ENVISION™ (Perkin-Elmer). The luminescence value of the wells with addition of test substance was determined as a relative value, with 100% as the luminescence value of the wells with cells but without addition of the test substance, and 0% as the luminescence value of the wells without cells. A plot of test substance concentration against luminescence value % approximated a 4-parameter logistic curve, and the test substance concentration necessary for 50% inhibition of cell growth (Absolute IC50) was calculated, and is shown in Table 4.

[1] = molecular target: HiBiT tagged BRD4-BD1 protein in HEK293/LgBiT/hPGK/HiBiT-BRD4-BD1 cells (Homo sapiens, UniProt O60885); test: BET BD1 domain degradation assay; type: cell-based; set-up: HiBit-linker-BRD4 BD1(1-209); host or cells: HEK293 (ATCC CRL-1573) stably transduced with LgBiT and HiBiT-BRD4-BD1; details: concentration for 50% reduction in HiBiT-BRD4-BD1 protein level, 3 hours, read-out: Absolute DC50—3 h (nM) HEK293_HiBiT-BRD4-BD1
From the text: HEK293/LgBiT/hPGK/HiBiT-BRD4-BD1 cells were established by introducing LgBiT and HiBiT-BRD4-BD1 into the human fetus renal cell line HEK293 (ATCC Number CRL-1573). LgBiT was introduced using lentivirus vector LV[Exp]-Bsd-EFS>{LgBiT}, and HiBiT-BRD4-BD1 was introduced with lentivirus vector LV[Exp]-Puro-hPGK>{HiBit-linker-BRD4 BD1(1-209)}. The vector plasmids LV[Exp]-Bsd-EFS>{LgBiT} and LV[Exp]-Puro-hPGK>{HiBit-linker-BRD4_BD1(1-209)} were constructed by VectorBuilder Co. The lentivirus was produced using a Mission Lentivirus Packaging Mix (Sigma) according to the manufacturer's protocol. Viral infection and drug selection of infected cells were carried out by the following published method (Akagi T. et. al, PNAS 2003; 100:13567-72). The cells were maintenance cultured in a 5% CO2 incubator (37° C.), using culture medium. A 45 μL portion of cell suspension of HEK293/LgBiT/hPGK/HiBiT-BRD4-BD1 cells prepared to 6.7×10^4 cells/mL using culture medium was added to each well of a collagen I-coated 384-well plate (Falcon 356667), and the cells were cultured overnight in a 5% CO2 incubator (37° C.). On the following day, 5 μL of test substance diluted with RPMI-1640 (FujiFilm-Wako Pure Chemical Industries) containing 10% fetal bovine serum (FBS: SIGMA 173012) and penicillin/streptomycin (FujiFilm-Wako Pure Chemical Industries) was added to each well, and culturing was continued for 3 hours in a 5% CO2 incubator (37° C.). The luminous intensity was measured using a Nono-Glo HiBiT Lytic Detection System (Promega), and the intracellular HiBiT tagged BRD4-BD1 protein level was calculated. After culturing, 25 μL of measuring reagent was added to each well and the plate contents were mixed for 5 minutes using a plate mixer. The plate was stationed for 10 minutes at room temperature while shielded from light, and then the luminous intensity was measured with an ENVISION′ (Perkin-Elmer). The luminescence value of the wells with addition of test substance was determined as a relative value, with 100% as the luminescence value of the wells with cells but without addition of the test substance, and 0% as the luminescence value of the wells without cells. A plot of test substance concentration against luminescence value % approximated a 4-parameter logistic curve, and the test substance concentration necessary for 50% reduction in protein level (Absolute DC50) was calculated and is shown in Table 4.

| SMILES | IC50 (AsPC-1/Cas9 cell line; Homo sapiens, ASPC1, 120 h) [nM] | DC50 [1] [nM] | IC50 (AsPC-1/Cas9 cell line) [nM] |
| --- | --- | --- | --- |
| COc1ccc(C(=O)N2C[C@H](C)N(C3CCN(c4nc([C@@](CN)(OC5CC5)c5ccccc5)c5cc(-c6cn(C)c(=O)c7[nH]ccc67)ccc5n4)CC3)C[C@H]2C)cc1N1CCC(=O)NC1=O [Example 114, 1-(5-((2R,5 S)-4-(1-(4-((R)-2-Amino-1-cyclopropoxy-1-phenylethyl)-6-(6-methyl-7-oxo-6,7-dihydro-1H-pyrrolo[2,3-c]pyridin-4-yl)quinazolin-2-yl)piperidin-4-yl)-2,5-dimethylpiperazine-1-carbonyl)-2-methoxyphenyl)dihydropyrimidine-2,4(1H,3H)-dione] | 0.11 | 0.33 | – |
| COc1ccc(C#CCNC2(C)CCN(C3CCN(c4nc([C@@](CO)(OC5CC5)c5ccccc5)c5cc(-c6cn(C)c(=O)c7[nH]ccc67)ccc5n4)CC3)CC2)cc1N1CCC(=O)NC1=O [Example 101, (S)-1-(5-(3-((1′-(4-(1-Cyclopropoxy-2-hydroxy-1-phenylethyl)-6-(6-methyl-7-oxo-6,7-dihydro-1H-pyrrolo[2,3-c]pyridin-4-yl)quinazolin-2-yl)-4-methyl-[1,4′-bipiperidin]-4-yl)amino)prop-1-yn-1-yl)-2-methoxyphenyl)dihydropyrimidine-2,4(1H,3H)-dione] | – | 0.083 | 0.087 |
| COc1ccc(C(=O)NC2(C)CCN(C3CCN(c4nc(C(CO)(CC(C)C)c5cccs5)c5cc(-c6cn(C)c(=O)c7[nH]ccc67)ccc5n4)CC3)CC2)cc1N1CCC(=O)NC1=O (stereo not shown) [Example 125, 3-(2,4-Dioxotetrahydropyrimidine-1(2H)-yl)-N-(1′-(4-(1-hydroxy-4-methyl-2-(thiophen-2-yl)pentan-2-yl)-6-(6-methyl-7-oxo-6,7-dihydro-1H-pyrrolo[2,3-c]pyridin-4-yl)quinazolin-2-yl)-4-methyl-[1,4′-bipiperidin]-4-yl)-4-methoxybenzamide] | 0.2 | 0.19 | – |
| Cc1cc(-c2ccc3nc(N4CCC(CN5CCN(C(=O)COc6cccc7c6C(=O)N(C6CCC(=O)NC6=O)C7=O)CC5)CC4)nc(C(CO)(OC4CC4)c4ccccc4)c3c2)cn(C)c1=O (stereo not shown) [Example 122, 4-(2-(4-((1-(4-(1-Cyclopropoxy-2-hydroxy-1-phenylethyl)-6-(1,5-dimethyl-6-oxo-1,6-dihydropyridin-3-yl)quinazolin-2-yl)piperidin-4-yl)methyl)piperazin-1-yl)-2-oxoethoxy)-2-(2,6-dioxopiperidin-3-yl)isoindoline-1,3-dione] | 4.9 | 0.15 | – |

Further lines, results first:

| IC50 (AsPC-1/Cas9 cell line; Homo sapiens, ASPC1, 120 h) [nM] | DC50 [1] [nM] | IC50 (AsPC-1/Cas9 cell line) [nM] | SMILES |
| --- | --- | --- | --- |
| 0.98 | 0.19 | – | COc1ccc(-n2cc(CN3CCN(CC4CCN(c5nc(C(CO)(OC6CC6)c6ccccc6)c6cc(-c7cc(C)c(=O)n(C)c7)ccc6n5)CC4)CC3)nn2)cc1N1CCC(=O)NC1=O (stereo not shown) [Example 130, 1-(5-(4-((4-((1-(4-(1-Cyclopropoxy-2-hydroxy-1-phenylethyl)-6-(1,5-dimethyl-6-oxo-1,6-dihydropyridin-3-yl)quinazolin-2-yl)piperidin-4-yl)methyl)piperazin-1-yl)methyl)-1H-1,2,3-triazol-1-yl)-2-methoxyphenyl)-dihydropyrimidine-2,4(1H,3H)-dione] |
| 41 | > 100 | – | COc1ccc(C#CCNC2(C)CCN(C3CCN(c4nc([C@@](CO)(OC5CC5)c5ccccc5)c5cc(-c6cn(C)c(=O)c7[nH]ccc67)ccc5n4)CC3)CC2)cc1N1CCC(=O)N(CNC(=O)[C@H](CC(=O)O)NC(C)=O)C1=O [Example 138, (S)-3-Acetamide-4-(((3-(5-(3-((1′-(4-((S)-1-cyclopropoxy-2-hydroxy-1-phenylethyl)-6-(6-methyl-7-oxo-6,7-dihydro-1H-pyrrolo[2,3-c]pyridin-4-yl)quinazolin-2-yl)-4-methyl-[1,4′-bipiperidin]-4-yl)amino)prop-1-yn-1-yl)-2-methoxyphenyl)-2,6-dioxotetrahydropyrimidine-1(2H)-yl)methyl)amino)-4-oxobutanoic acid] |
| 0.32 | 0.25 | – | COc1ccc(C(=O)NC2(C)CCN(C3CCN(c4nc(C(CO)(OC5CC5)c5cccc6ccccc56)c5cc(-c6cn(C)c(=O)c7[nH]ccc67)ccc5n4)CC3)CC2)cc1N1CCC(=O)NC1=O (stereo not shown) [Example 128, N-(1′-(4-(1-Cyclopropoxy-2-hydroxy-1-(naphthalen-1-yl)ethyl)-6-(6-methyl-7-oxo-6,7-dihydro-1H-pyrrolo[2,3-c]pyridin-4-yl)quinazolin-2-yl)-4-methyl-[1,4′-bipiperidin]-4-yl)-3-(2,4-dioxotetrahydropyrimidine-1(2H)-yl)-4-methoxybenzamide] |
| 4.5 | 11 | – | COc1ccc(C#CCNC2(C)CCN(C3CCN(c4nc([C@@](COCNC(=O)[C@H](CC(N)=O)NC(C)=O)(OC5CC5)c5ccccc5)c5cc(-c6cn(C)c(=O)c7[nH]ccc67)ccc5n4)CC3)CC2)cc1N1CCC(=O)NC1=O [Example 131] |
